# Patent US11638716B2, “Compounds, compositions, and methods for the treatment of disease” (F-star Therapeutics, Inc., priority 2017, dated 2023)
# How the values were obtained:
# [1] = test system: MYD88 knock out cells; assay: IRF/NF-kB reporter activity in MYD88 knock out cells; format: cell-based; settings: 20 hours
# Experimental: (§1) FIG. 27 depicts cells stably expressing both or either one of the reporters to measure IRF and NF-kB activity were treated with a range of concentrations of compound 4 or DMSO control for 20 hours. IRF activity was assessed using QUANTI-luc to measure levels of Lucia and NF-kB activity was determined by measure SEAP levels at 620-655 nm. % induction was calculated from fold change in luminescence/absorbance compared to DMSO treated sample. EC50 values are generated by curve fit in Xlfit.
# (§2) Cells grown in complete media were treated with various concentrations of a compound of the disclosure or DMSO control. Dual cells carry both secreted embryonic alkaline phosphatase (SEAP) reporter gene under the control of an IFN-β minimal promoter fused to five copies of the NF-kB consensus transcriptional response element to measure NF-kB activity and Lucia reporter gene under the control of an ISG54 minimal promoter to measure IRF activity. After 20 h incubation, IRF activity was assessed using QUANTI-luc to measure levels of Lucia and NF-kB activity was determined by measure SEAP levels at 620-655 nm. % induction was calculated from fold change in luminescence/absorbance compared to DMSO treated sample. EC50 values are generated by curve fit in Xlfit.
# [2] = target: R232H variant of hSTING (Homo sapiens, UniProt Q86WV6); assay: IRF/NF-kB reporter cells, STING R232H variant; format: cell-based; settings: 20 hours
# Experimental: as §1, §2
# [3] = test system: NF-kB; assay: NF-kB signaling reporter (SEAP), compound 4 and diastereomers; format: cell-based; settings: FIG. 34B, 20 hours
# Experimental: Cells were treated with various concentrations of compound 4 and two of its diastereomers (4-A and 4-B), or DMSO control for 20 hours. Cells stably expressed one or both of the reporters used to measure NF-kB activity. NF-kB activity was determined by measure SEAP levels at 620-655 nm. % induction was calculated from fold change in luminescence/absorbance compared to DMSO treated sample.
# [4] = target: T1, human wtSTING-CTD (with SUMO tag) (Homo sapiens, UniProt Q86WV6, H232R); assay: Isothermal calorimetry against human wtSTING-CTD; format: binding; settings: 25° C., 1.5 mM compound titrated against 132.5 μM protein
# T1 construct: human wtSTING-CTD (with SUMO tag)
# Experimental: Isothermal Calorimetry was carried out on a MicroCal Itc200 at 25° C.
# [5] = test system: ISGs/type I IFN response; assay: ISGs/type I IFN response in normal Balb/C mice after intravenous dosing; format: in vivo, mouse; settings: intravenously 9 mg/kg
# Sequence of R232H variant of hSTING (Q86WV6 whole entry, stated change not applied): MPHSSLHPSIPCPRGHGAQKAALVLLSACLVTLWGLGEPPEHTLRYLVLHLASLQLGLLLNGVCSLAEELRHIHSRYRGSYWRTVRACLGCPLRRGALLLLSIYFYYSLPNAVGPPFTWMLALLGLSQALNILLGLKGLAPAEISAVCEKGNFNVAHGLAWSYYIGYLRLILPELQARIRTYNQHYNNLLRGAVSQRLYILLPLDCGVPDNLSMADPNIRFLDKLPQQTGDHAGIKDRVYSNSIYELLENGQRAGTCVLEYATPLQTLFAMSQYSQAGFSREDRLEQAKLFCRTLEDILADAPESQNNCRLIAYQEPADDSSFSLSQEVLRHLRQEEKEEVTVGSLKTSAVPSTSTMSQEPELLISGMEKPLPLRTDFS
# T1 sequence (Q86WV6 135-379 H232R): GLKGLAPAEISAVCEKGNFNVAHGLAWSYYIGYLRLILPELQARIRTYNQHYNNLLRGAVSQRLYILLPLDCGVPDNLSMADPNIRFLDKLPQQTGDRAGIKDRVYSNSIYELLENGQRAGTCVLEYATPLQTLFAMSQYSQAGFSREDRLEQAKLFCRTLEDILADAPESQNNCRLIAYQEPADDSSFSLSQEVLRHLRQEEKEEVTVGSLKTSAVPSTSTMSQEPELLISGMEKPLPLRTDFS
binding to STING (isothermal calorimetry) [4],Structure (SMILES),activity in MYD88 knock out cells [1],activity against R232H variant of hSTING [2],NF-kB signaling induction [3],upregulation of ISGs/type I IFN response [5]
,CCCCCCCCCCOc1ccc(C(=O)Oc2ccc(CSP3(=O)OC[C@H]4O[C@@H](n5cnc6c(N)ncnc65)[C@H](F)[C@@H]4OP(=O)(O)OC[C@H]4O[C@@H](n5ccc(=O)[nH]c5=O)[C@H](O3)[C@@H]4F)cc2)cc1 (some centres unmarked) [Compound 4],possess activity,possess activity,efficacious in inducing NF-kB signaling,
bind to STING with high affinity,N.N.Nc1ncnc2c1ncn2[C@@H]1O[C@@H]2COP(=O)(S)O[C@@H]3[C@H](F)[C@@H](COP(=O)(O)O[C@H]2[C@H]1F)O[C@H]3n1ccc(=O)[nH]c1=O (some centres unmarked) [Compound 3],,,,strongly induced upregulation
